Results published in patent publication US20240092758A1, “IMIDAZOLO INDAZOLE COMPOUNDS AS JAK INHIBITORS” (Theravance Biopharma R&D IP, LLC, priority 2021, published 2024).

How the values were obtained:
JAK1 = JAK1 (Homo sapiens (Human), UniProt P23458); assay: Biochemical JAK kinase assay (LanthaScreen), JAK1; conditions: for Ki: read-out: JAK1 pKi (converted)
How it was run: (§1)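 LanthaScreen format: phospho-STAT1 (pTyr701) detected with 2 nM Tb antibody after 10 mM EDTA quench. Kinase step used Km-level ATP and 200 nM STAT1 peptide, 1 h at ambient after 1 h pre-incubation. Inhibition fitted to IC50, reported as pKi.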

JAK2 = JAK2 (Homo sapiens (Human), UniProt O60674); assay: Biochemical JAK kinase assay (LanthaScreen), JAK2; conditions: for Ki: read-out: JAK2 pKi (converted)
JAK2, sequence (O60674 whole entry): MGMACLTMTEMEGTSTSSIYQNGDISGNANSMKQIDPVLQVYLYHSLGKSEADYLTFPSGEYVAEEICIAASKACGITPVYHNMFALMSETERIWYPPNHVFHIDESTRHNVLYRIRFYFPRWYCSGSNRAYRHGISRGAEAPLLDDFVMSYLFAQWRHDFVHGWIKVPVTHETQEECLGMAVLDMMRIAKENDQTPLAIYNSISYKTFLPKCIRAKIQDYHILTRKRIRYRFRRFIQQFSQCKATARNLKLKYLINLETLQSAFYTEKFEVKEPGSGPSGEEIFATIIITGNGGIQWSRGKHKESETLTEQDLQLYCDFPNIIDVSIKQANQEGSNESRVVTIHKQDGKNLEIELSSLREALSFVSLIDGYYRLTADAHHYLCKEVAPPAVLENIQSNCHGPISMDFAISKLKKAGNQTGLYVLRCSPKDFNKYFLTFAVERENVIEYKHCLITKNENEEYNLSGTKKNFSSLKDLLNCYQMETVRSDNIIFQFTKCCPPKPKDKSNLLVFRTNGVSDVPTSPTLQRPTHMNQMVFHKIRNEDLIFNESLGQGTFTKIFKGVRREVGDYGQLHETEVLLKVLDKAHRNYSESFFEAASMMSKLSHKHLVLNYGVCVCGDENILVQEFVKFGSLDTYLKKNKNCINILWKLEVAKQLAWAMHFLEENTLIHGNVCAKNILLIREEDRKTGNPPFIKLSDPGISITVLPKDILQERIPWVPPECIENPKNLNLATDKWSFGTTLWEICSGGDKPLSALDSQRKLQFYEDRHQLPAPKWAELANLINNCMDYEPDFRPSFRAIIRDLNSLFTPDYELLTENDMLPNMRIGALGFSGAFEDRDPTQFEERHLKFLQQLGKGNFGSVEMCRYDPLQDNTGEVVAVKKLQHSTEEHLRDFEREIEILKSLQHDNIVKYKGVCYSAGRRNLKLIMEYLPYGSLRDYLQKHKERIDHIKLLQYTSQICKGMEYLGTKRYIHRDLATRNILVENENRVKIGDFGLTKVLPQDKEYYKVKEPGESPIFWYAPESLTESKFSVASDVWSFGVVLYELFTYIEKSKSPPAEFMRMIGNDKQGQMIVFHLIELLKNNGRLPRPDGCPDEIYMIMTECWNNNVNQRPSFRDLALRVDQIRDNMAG
How it was run: as §1

[1] = system: IL-13 induced STAT6 phosphorylation in BEAS-2B human lung epithelial cells; assay: Cellular JAKI potency assay (BEAS-2B); type: cell-based; conditions: Homo sapiens, BEAS-2B, BEAS-2B cells, read-out: BEAS2B pIC50 (converted)
How it was run: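 BEAS-2B cells were preincubated with compound (0.1% DMSO) in HBSS/HEPES/BSA for 1 h at 37 °C, then stimulated with IL-13 (80 ng/mL before addition) for 30 min. After lysis, pSTAT6 (Tyr641) was quantified by AlphaLISA SureFire; IC50 from a 4-parameter fit of percent inhibition, reported as pIC50.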

JAK1, sequence (P23458 whole entry): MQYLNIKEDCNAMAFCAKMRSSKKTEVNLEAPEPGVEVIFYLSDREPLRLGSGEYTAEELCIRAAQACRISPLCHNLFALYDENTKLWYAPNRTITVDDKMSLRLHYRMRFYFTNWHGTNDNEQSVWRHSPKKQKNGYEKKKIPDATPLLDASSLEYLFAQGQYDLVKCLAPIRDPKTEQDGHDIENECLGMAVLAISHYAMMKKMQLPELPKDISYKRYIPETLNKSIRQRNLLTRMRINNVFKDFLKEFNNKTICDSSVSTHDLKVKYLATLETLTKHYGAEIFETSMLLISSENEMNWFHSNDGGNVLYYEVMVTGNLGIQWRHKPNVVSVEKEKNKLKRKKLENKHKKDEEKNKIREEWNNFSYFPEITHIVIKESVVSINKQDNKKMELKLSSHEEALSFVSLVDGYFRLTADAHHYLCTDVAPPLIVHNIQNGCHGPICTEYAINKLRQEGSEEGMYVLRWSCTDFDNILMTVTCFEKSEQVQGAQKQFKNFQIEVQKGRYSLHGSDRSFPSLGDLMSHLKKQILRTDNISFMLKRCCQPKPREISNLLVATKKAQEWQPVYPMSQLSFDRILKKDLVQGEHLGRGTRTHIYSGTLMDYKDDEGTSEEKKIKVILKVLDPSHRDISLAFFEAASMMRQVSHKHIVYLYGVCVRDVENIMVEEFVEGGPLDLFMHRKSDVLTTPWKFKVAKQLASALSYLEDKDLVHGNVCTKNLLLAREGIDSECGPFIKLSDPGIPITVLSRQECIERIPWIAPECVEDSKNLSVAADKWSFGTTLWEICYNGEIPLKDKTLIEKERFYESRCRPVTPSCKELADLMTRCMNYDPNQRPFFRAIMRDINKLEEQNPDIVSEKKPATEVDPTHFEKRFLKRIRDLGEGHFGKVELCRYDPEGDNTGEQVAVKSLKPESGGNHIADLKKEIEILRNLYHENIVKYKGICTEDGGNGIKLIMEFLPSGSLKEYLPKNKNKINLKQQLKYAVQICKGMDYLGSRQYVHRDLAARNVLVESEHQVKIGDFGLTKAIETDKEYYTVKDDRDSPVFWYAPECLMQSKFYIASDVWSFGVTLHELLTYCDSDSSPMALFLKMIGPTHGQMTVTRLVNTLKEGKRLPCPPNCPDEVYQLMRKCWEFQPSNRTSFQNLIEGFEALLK

**Q.** How did the Ki (JAK1) turn out when `CCc1cc(O)ccc1-c1ccc2c(-c3nc(C4=CC(c5ccccc5)NC4)c[nH]3)n[nH]c2c1F` (stereo not drawn) [Example 372] was run?
**A.** 1 to 10 nM

**Q.** What about the Ki (JAK2) of the same molecule?
**A.** 1 to 10 nM

**Q.** What about the IC50 [1] of the same molecule?
**A.** 31.6 to 100 nM

**Q.** For `CCc1cc(O)ccc1-c1ccc2c(-c3nc(C4=CCCN(CCNS(C)(=O)=O)C4)c[nH]3)n[nH]c2c1F` [Example 111], which Ki (JAK1) is on record?
**A.** 0.1 to 1 nM

**Q.** What about the Ki (JAK2) of the same molecule?
**A.** 0.1 to 1 nM

**Q.** And the IC50 [1]?
**A.** 10 to 31.6 nM

**Q.** Which results are given for `CCc1cc(O)ccc1-c1ccc2c(-c3nc(C4=CC5COCC(C4)N5)c[nH]3)n[nH]c2c1F` (stereo not drawn) [Example 228]?
**A.** Ki (JAK1): 0.1 to 1 nM; Ki (JAK2): 0.1 to 1 nM; IC50 [1]: 10 to 31.6 nM

**Q.** `CCc1cc(O)ccc1-c1ccc2c(-c3nc(C4=CCN([C@H]5CC[C@@](O)(C(F)(F)F)CC5)C4)c[nH]3)n[nH]c2c1F` [Example 359] was tested. Which Ki (JAK1) did it give?
**A.** 1 to 10 nM

**Q.** What about the Ki (JAK2) of the same molecule?
**A.** 0.1 to 1 nM

**Q.** What about the IC50 [1] of the same molecule?
**A.** 31.6 to 100 nM

**Q.** How did the Ki (JAK1) turn out when `CCc1cc(O)ccc1-c1ccc2c(-c3nc(C4=CCCN(CCS(C)(=O)=O)C4)c[nH]3)n[nH]c2c1F` [Example 91] was run?
**A.** 0.1 to 1 nM

**Q.** What about the Ki (JAK2) of the same molecule?
**A.** 0.1 to 1 nM

**Q.** And the IC50 [1]?
**A.** 10 to 31.6 nM

**Q.** How did the “JAK1 pKi” value (JAK1) turn out when `CCCCN1CC=C(c2c[nH]c(-c3n[nH]c4c(F)c(-c5ccc(O)cc5CC)ccc34)n2)C1` [Example 316] was run?
**A.** A (A represents a pKi value ≥10 (Ki≤0.1 nM))

**Q.** And the “JAK2 pKi” value (JAK2)?
**A.** A (A represents a pKi value ≥10 (Ki≤0.1 nM))

**Q.** And the IC50 [1]?
**A.** 10 to 31.6 nM

**Q.** For `Oc1ccc(-c2ccc3c(-c4nc(C5=CCNCC5)c[nH]4)n[nH]c3c2F)c(CC(F)(F)F)c1` [Example 387], which Ki (JAK1) is on record?
**A.** 1 to 10 nM

**Q.** What about the Ki (JAK2) of the same molecule?
**A.** 0.1 to 1 nM

**Q.** And the IC50 [1]?
**A.** 31.6 to 100 nM

**Q.** Which results are given for `CCc1cc(O)ccc1-c1ccc2c(-c3nc(C4=CC[C@H](C)N(CC(=O)NC)C4)c[nH]3)n[nH]c2c1F` [Example 275]?
**A.** Ki (JAK1): 0.1 to 1 nM; Ki (JAK2): 0.1 to 1 nM; IC50 [1]: 10 to 31.6 nM

**Q.** Which results are given for `CCc1cc(O)ccc1-c1ccc2c(-c3nc(C4=CC[C@H](C)N(C(C)CO)C4)c[nH]3)n[nH]c2c1F` (stereo partly drawn) [Example 259]?
**A.** Ki (JAK1): 0.1 to 1 nM; Ki (JAK2): 0.1 to 1 nM; IC50 [1]: 10 to 31.6 nM

**Q.** Which Ki (JAK1) does the source give for `CCc1cc(O)ccc1-c1ccc2c(-c3nc(C4=C(C(=O)OC(C)C)CCNC4)c[nH]3)n[nH]c2c1F` [Example 315] here?
**A.** 0.1 to 1 nM

**Q.** And the Ki (JAK2)?
**A.** 0.1 to 1 nM

**Q.** And the IC50 [1]?
**A.** 10 to 31.6 nM

**Q.** What does the source list for `CCc1cc(O)ccc1-c1ccc2c(-c3nc(C4=CCN(Cc5cnc[nH]5)CC4)c[nH]3)n[nH]c2c1` [Example 131]?
**A.** JAK1 pKi (JAK1): A (A represents a pKi value ≥10 (Ki≤0.1 nM)); JAK2 pKi (JAK2): A (A represents a pKi value ≥10 (Ki≤0.1 nM)); IC50 [1]: 10 to 31.6 nM

**Q.** For `CCc1cc(O)ccc1-c1ccc2c(-c3nc(C4=CCN(C(=O)CN(CCO)CCO)C4)c[nH]3)n[nH]c2c1F` [Example 364], which Ki (JAK1) is on record?
**A.** 0.1 to 1 nM

**Q.** What about the “JAK2 pKi” value (JAK2) of the same molecule?
**A.** A (A represents a pKi value ≥10 (Ki≤0.1 nM))

**Q.** And the IC50 [1]?
**A.** 31.6 to 100 nM

**Q.** Which results are given for `CCc1cc(O)c(C)cc1-c1ccc2c(-c3nc(C4=CCNCC4)c[nH]3)n[nH]c2c1F` [Example 371]?
**A.** Ki (JAK1): 1 to 10 nM; Ki (JAK2): 1 to 10 nM; IC50 [1]: 31.6 to 100 nM

**Q.** `CCc1cc(O)ccc1-c1ccc2c(-c3nc(C4=CCN(CCNS(C)(=O)=O)CC4)c[nH]3)n[nH]c2c1` [Example 99] was tested. Which “JAK1 pKi” value (JAK1) did it give?
**A.** A (A represents a pKi value ≥10 (Ki≤0.1 nM))

**Q.** And the “JAK2 pKi” value (JAK2)?
**A.** A (A represents a pKi value ≥10 (Ki≤0.1 nM))

**Q.** What about the IC50 [1] of the same molecule?
**A.** 10 to 31.6 nM

**Q.** With `CCc1cc(O)ccc1-c1ccc2c(-c3nc(C4=C[C@H](CO)N(CCC(C)(C)O)C4)c[nH]3)n[nH]c2c1F` [Example 329] as the molecule, how does the “JAK1 pKi” value (JAK1) read?
**A.** A (A represents a pKi value ≥10 (Ki≤0.1 nM))

**Q.** What about the “JAK2 pKi” value (JAK2) of the same molecule?
**A.** A (A represents a pKi value ≥10 (Ki≤0.1 nM))

**Q.** What about the IC50 [1] of the same molecule?
**A.** 10 to 31.6 nM

**Q.** With `CCc1cc(O)ccc1-c1ccc2c(-c3nc(C4=C[C@H](CO)N(C)C4)c[nH]3)n[nH]c2c1F` [Example 289] as the molecule, how does the “JAK1 pKi” value (JAK1) read?
**A.** A (A represents a pKi value ≥10 (Ki≤0.1 nM))

**Q.** And the “JAK2 pKi” value (JAK2)?
**A.** A (A represents a pKi value ≥10 (Ki≤0.1 nM))

**Q.** What about the IC50 [1] of the same molecule?
**A.** 3.16 to 10 nM

**Q.** How did the Ki (JAK1) turn out when `CCc1cc(O)ccc1-c1ccc2c(-c3nc(C4=CCN(S(C)(=O)=O)CC4)c[nH]3)n[nH]c2c1F` [Example 155] was run?
**A.** 1 to 10 nM

**Q.** And the Ki (JAK2)?
**A.** 0.1 to 1 nM

**Q.** What about the IC50 [1] of the same molecule?
**A.** 10 to 31.6 nM

**Q.** With `CCc1cc(O)ccc1-c1ccc2c(-c3nc(C4=CCN(C(=O)CN5CCCC5)C4)c[nH]3)n[nH]c2c1F` [Example 351] as the molecule, how does the Ki (JAK1) read?
**A.** 0.1 to 1 nM

**Q.** What about the “JAK2 pKi” value (JAK2) of the same molecule?
**A.** A (A represents a pKi value ≥10 (Ki≤0.1 nM))

**Q.** And the IC50 [1]?
**A.** 31.6 to 100 nM

**Q.** `CCc1cc(O)ccc1-c1ccc2c(-c3nc(C4=CCN(Cc5cn[nH]c5)CC4)c[nH]3)n[nH]c2c1` [Example 132] was tested. Which “JAK1 pKi” value (JAK1) did it give?
**A.** A (A represents a pKi value ≥10 (Ki≤0.1 nM))

**Q.** And the “JAK2 pKi” value (JAK2)?
**A.** A (A represents a pKi value ≥10 (Ki≤0.1 nM))

**Q.** What about the IC50 [1] of the same molecule?
**A.** 3.16 to 10 nM

**Q.** Which Ki (JAK1) does the source give for `CCc1cc(O)ccc1-c1ccc2c(-c3nc(C4=CCCN(CC(=O)NC)C4)c[nH]3)n[nH]c2c1F` [Example 92] here?
**A.** 1 to 10 nM

**Q.** What about the Ki (JAK2) of the same molecule?
**A.** 0.1 to 1 nM

**Q.** And the IC50 [1]?
**A.** 10 to 31.6 nM

**Q.** `CCc1cc(O)ccc1-c1ccc2c(-c3nc(C4=C(C(=O)OC)CNCC4)c[nH]3)n[nH]c2c1F` [Example 294] was tested. Which Ki (JAK1) did it give?
**A.** 0.1 to 1 nM

**Q.** What about the “JAK2 pKi” value (JAK2) of the same molecule?
**A.** A (A represents a pKi value ≥10 (Ki≤0.1 nM))

**Q.** And the IC50 [1]?
**A.** 3.16 to 10 nM
